For assay [1], the system named is fulvestrant-resistant MCF7:5C-FR cells. Briefly: Fulvestrant-resistant breast cancer cell viability (cell proliferation) assay. Format: cell-based. The following applies: for IC50: 120 h, growth inhibition in fulvestrant-resistant MCF-7:CFR cells, 120 hrs. In outline:
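Cells were treated the day after seeding with compounds at 3 nM to 10 uM for 120 h, with 0.1% DMSO vehicle and 1 uM JQ1 as positive control. Hoechst 33342-stained (5 μg/ml, 90 min, 37 C) nuclei were imaged and counted, and cell numbers normalized to vehicle.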

The target of assay [2] is BRD4 bromodomain 1 (Homo sapiens (Human), UniProt O60885). Briefly: TR-FRET BRD4 binding assay, bromodomain 1. The following applies: read-out: TR-FRET BRD4-BD1 Ki. How it is done: (§1) Briefly, compounds were serial diluted into the 1×TR-FRET Assay Buffer with no more than 8% DMSO, and the final concentration tested was distributed from […] to 10 uM with no more than 2% DMSO. (+)JQ-1 was used as positive control. […] Then the reconstituted BRD4 bromodomain ligand/APC Acceptor Mixture were added to every well and incubate for 1 hr at room temperature. The plate was sealed with adhesive aluminum seal to prevent photobleaching. Then the plate was read in time-resolved format by exiting the well at 340 nm and reading emmission at 620 and 670 nm, using 100 us delay and 500 us read window. Data analysis was performed using the TR-FRET ratio which is the 670 nm emission/620 nm emission.

Assay [3] addresses BRD4 bromodomain 2 (Homo sapiens (Human), UniProt O60885). Briefly: TR-FRET BRD4 binding assay, bromodomain 2. The following applies: read-out: TR-FRET BRD4-BD2 Ki. How it is done: as §1
The subject of assay [4] is 3D spheroids of fulvestrant-resistant MCF-7:CFR. In words: Growth of 3D spheroids of fulvestrant-resistant MCF-7:CFR. In kind it is cell-based. As to conditions: FIG. 11; vs JQ1 and AZD-5153.
In assay [5] the target is BAZ2A (Homo sapiens (Human), UniProt Q9UIF9). Briefly: BROMOscan. In kind it is binding. The source says: (§2) BROMOscan is a bromodomain inhibitor binding platform provided by DiscoverX that measures the interactions between compounds and a panel of bromodomain proteins.
Assay [6] deals with BRD1 (Homo sapiens (Human), UniProt O95696). Briefly: BROMOscan. Format: binding.
Excerpt: as §2

Assay [7] has as its target BRD2(1) (Homo sapiens (Human), UniProt P25440). In words: BROMOscan. In kind it is binding.
Excerpt: as §2

Assay [8] has as its target BRD2(1, 2) (Homo sapiens (Human), UniProt P25440). Briefly: BROMOscan. Format: binding.
Excerpt: as §2

Assay [9] concerns the target BRD2(2) (Homo sapiens (Human), UniProt P25440). Briefly: BROMOscan. Format: binding.
Excerpt: as §2

In assay [10] the target is BRD3(1) (Homo sapiens (Human), UniProt Q15059). Briefly: BROMOscan. In kind it is binding.
Chain of BRD3(1) (Q15059 34-140): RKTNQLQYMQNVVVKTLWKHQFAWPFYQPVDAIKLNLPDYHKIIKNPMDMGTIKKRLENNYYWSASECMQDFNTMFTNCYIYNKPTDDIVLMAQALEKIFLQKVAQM
Excerpt: as §2

For assay [11], the target named is BRD3(1, 2) (Homo sapiens (Human), UniProt Q15059). Briefly: BROMOscan. In kind it is binding.
Excerpt: as §2

For assay [12], the target named is BRD3(2) (Homo sapiens (Human), UniProt Q15059). In words: BROMOscan. In kind it is binding.
Chain of BRD3(2) (Q15059 306-415): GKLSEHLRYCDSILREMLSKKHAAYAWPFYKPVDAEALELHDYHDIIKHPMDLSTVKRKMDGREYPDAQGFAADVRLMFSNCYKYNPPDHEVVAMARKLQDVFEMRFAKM
Excerpt: as §2

Assay [13] concerns the target BRD8(1) (Homo sapiens (Human), UniProt Q9H0E9). Briefly: BROMOscan. In kind it is binding.
Excerpt: as §2

Assay [14] addresses BRD9 (Homo sapiens (Human), UniProt Q9H8M2). Briefly: BROMOscan. Format: binding.
Excerpt: as §2

In assay [15] the target is BRDT(1) (Homo sapiens (Human), UniProt Q58F21). Briefly: BROMOscan. Format: binding.
Excerpt: as §2

The target of assay [16] is BRDT(1, 2) (Homo sapiens (Human), UniProt Q58F21). Briefly: BROMOscan. Format: binding.
Excerpt: as §2

Assay [17] has as its target BRDT(2) (Homo sapiens (Human), UniProt Q58F21). In words: BROMOscan. Format: binding.
Excerpt: as §2

The target of assay [18] is BRPF1 (Homo sapiens (Human), UniProt P55201). In words: BROMOscan. Format: binding.
Excerpt: as §2

In assay [19] the target is CECR2 (Homo sapiens (Human), UniProt Q9BXF3). In words: BROMOscan. Format: binding.
Chain of CECR2 (Q9BXF3 whole entry): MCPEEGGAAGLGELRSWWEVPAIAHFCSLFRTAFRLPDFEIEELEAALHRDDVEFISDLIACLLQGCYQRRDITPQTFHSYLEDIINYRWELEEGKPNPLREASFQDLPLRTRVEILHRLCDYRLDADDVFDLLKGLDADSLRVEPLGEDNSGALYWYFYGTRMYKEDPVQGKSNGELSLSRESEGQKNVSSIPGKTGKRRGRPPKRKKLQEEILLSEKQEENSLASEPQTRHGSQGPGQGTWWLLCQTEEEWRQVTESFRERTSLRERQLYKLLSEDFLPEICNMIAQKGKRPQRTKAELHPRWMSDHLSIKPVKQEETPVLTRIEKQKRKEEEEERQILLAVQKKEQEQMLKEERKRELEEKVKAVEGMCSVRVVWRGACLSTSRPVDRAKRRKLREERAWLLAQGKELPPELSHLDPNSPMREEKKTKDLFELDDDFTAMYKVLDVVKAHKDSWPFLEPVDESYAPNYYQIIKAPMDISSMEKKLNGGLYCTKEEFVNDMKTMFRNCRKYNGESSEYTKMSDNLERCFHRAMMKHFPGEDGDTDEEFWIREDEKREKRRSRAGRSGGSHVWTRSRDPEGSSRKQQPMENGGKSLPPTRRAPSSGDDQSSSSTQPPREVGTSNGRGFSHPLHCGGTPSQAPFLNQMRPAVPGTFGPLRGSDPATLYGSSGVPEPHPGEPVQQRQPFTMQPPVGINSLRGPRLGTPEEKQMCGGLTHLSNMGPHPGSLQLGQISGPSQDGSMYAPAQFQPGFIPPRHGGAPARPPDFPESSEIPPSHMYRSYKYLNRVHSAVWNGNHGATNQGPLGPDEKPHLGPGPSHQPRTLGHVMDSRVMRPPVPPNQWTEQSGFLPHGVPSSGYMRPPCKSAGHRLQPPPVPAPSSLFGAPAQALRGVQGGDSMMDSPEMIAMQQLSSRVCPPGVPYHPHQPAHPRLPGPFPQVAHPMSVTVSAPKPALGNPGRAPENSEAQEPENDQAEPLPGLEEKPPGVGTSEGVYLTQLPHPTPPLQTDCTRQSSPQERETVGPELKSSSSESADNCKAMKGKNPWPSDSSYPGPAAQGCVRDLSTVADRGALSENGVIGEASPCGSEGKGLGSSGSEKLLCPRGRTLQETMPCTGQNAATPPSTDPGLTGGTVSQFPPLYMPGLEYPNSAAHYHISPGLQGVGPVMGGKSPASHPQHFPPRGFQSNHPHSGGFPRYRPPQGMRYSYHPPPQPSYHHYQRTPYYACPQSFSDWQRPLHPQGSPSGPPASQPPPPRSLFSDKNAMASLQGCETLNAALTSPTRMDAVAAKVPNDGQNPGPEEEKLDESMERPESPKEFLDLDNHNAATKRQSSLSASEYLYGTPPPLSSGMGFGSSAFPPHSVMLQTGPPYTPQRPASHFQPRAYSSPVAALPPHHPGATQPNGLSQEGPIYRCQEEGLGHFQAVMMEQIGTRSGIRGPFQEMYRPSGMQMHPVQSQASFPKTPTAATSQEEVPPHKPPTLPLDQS
Excerpt: as §2

In assay [20] the target is CREBBP (Homo sapiens (Human), UniProt Q92793). In words: BROMOscan. In kind it is binding.
Chain of CREBBP (Q92793 whole entry): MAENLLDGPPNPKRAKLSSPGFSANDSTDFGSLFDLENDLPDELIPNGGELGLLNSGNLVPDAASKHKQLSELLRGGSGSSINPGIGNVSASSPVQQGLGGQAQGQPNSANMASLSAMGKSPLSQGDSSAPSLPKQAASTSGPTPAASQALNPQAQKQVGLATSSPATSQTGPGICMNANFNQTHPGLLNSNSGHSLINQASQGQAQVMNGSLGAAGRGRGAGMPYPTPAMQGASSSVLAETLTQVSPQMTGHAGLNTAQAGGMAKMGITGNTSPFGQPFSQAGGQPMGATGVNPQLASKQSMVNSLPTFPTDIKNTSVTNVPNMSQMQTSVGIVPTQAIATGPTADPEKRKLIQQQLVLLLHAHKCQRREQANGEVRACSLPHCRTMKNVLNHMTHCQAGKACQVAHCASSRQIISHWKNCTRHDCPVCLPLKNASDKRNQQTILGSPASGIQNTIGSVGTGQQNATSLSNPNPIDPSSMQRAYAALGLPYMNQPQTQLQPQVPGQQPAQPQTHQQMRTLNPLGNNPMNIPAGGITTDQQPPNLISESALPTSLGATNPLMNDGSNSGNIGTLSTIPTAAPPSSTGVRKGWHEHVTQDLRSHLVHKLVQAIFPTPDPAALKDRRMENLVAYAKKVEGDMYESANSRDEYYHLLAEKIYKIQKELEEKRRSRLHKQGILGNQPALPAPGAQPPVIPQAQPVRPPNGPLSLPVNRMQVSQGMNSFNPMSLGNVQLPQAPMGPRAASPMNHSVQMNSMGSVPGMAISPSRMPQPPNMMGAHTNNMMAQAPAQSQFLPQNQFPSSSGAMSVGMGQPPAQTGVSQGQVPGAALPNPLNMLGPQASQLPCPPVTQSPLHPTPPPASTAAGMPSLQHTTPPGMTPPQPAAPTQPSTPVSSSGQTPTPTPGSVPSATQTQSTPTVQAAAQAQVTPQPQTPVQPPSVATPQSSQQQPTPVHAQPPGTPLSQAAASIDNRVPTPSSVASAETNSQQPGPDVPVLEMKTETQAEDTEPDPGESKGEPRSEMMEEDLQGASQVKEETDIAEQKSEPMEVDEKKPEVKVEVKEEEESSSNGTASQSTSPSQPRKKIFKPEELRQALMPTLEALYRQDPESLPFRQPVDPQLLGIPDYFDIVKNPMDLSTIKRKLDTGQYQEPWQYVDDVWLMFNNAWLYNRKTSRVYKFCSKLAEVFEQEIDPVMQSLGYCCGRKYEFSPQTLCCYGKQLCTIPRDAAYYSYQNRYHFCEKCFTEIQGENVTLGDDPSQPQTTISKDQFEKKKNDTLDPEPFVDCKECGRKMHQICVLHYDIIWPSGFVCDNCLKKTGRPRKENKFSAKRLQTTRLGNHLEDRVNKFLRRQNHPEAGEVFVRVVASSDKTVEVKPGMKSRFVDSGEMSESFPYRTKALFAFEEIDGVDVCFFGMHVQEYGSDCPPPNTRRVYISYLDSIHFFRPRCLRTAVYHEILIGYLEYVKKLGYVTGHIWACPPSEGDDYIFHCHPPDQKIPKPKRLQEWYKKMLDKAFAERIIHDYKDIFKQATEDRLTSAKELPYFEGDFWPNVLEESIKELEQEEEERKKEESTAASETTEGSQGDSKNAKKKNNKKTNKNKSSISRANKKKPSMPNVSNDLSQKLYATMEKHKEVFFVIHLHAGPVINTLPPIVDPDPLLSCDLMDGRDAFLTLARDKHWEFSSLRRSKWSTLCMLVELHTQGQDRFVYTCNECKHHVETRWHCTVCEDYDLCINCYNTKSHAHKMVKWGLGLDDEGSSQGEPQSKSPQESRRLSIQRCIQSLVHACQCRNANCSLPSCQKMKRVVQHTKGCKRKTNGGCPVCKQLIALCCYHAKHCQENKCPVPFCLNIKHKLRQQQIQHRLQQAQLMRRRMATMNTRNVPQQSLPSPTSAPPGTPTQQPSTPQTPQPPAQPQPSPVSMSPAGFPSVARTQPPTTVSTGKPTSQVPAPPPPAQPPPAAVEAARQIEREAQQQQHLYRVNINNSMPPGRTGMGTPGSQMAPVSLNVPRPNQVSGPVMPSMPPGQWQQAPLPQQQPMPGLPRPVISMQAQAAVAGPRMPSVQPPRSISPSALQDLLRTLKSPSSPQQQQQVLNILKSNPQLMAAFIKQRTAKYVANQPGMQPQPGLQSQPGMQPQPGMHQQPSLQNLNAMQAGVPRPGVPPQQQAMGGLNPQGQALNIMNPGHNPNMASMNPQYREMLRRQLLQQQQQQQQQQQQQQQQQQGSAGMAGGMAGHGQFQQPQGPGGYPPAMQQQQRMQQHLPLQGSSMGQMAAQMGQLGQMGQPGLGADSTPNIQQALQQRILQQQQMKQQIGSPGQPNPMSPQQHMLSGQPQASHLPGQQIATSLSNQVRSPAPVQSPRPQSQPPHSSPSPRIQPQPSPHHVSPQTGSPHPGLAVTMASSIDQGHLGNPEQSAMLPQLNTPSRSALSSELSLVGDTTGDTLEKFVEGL
Excerpt: as §2

Assay [21] deals with EP300 (Homo sapiens (Human), UniProt Q09472). Briefly: BROMOscan. In kind it is binding.
Excerpt: as §2

For assay [22], the target named is PBRM1(5) (Homo sapiens (Human), UniProt Q86U86). In words: BROMOscan. Format: binding.
Excerpt: as §2

Assay [23] deals with TAF1(2) (Homo sapiens (Human), UniProt P21675). In words: BROMOscan. Format: binding.
Chain of TAF1(2) (P21675 1519-1628): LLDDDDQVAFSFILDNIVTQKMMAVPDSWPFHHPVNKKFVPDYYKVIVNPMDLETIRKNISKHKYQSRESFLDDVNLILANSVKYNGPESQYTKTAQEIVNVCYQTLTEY
Excerpt: as §2

In assay [24] the target is TAF1L(2) (Homo sapiens (Human), UniProt Q8IZX4). Briefly: BROMOscan. In kind it is binding.
Chain of TAF1L(2) (Q8IZX4 1517-1626): as the sequence (P21675 1519-1628) above, with V46M, M51V, V102I, L107I counted along it
Excerpt: as §2

For assay [25], the target named is TRIM24(Bromo.) (Homo sapiens (Human), UniProt O15164). In words: BROMOscan. In kind it is binding.
Chain of TRIM24(Bromo.) (O15164 899-1004): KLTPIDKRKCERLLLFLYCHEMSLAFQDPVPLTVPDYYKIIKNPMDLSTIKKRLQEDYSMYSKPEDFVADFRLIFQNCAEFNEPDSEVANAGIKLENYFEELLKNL
Excerpt: as §2

The subject of assay [26] is BET family proteins. Briefly: BROMOscan panel of bromodomain proteins. Format: binding. The following applies: FIG. 6.
Excerpt: as §2

Chain of BRD2(2) (P25440 344-453): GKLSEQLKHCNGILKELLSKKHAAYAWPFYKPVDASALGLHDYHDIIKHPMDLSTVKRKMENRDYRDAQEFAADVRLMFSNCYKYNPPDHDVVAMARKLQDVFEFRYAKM
Chain of BRD8(1) (Q9H0E9 706-811): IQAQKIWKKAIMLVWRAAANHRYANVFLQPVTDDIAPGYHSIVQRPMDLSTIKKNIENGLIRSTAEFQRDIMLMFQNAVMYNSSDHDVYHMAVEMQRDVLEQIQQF
Chain of BRD2(1, 2) (P25440 71-455): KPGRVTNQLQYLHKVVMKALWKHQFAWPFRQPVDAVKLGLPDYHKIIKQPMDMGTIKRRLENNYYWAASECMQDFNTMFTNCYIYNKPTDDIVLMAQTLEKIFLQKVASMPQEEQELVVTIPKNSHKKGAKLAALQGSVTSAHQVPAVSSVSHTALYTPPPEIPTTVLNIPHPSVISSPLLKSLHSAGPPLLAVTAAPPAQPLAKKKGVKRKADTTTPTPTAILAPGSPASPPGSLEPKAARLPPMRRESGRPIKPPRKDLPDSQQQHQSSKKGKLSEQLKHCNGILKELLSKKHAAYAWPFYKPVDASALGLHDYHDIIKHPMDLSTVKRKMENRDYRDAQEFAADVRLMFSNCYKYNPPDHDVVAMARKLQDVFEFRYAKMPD

As for `Cn1cc(-c2cc(NS(C)(=O)=O)c3ccn(Cc4ccc(F)cc4)c3c2)c2ccnc(O)c21` [Compound 23, N-(1-(4-fluorobenzyl)-6-(7-hydroxy-1-methyl-1H-pyrrolo[2,3-c]pyridin-3-yl)-1-indol-4-yl)methanesulfonamide], the IC50 in [1] stood at 17 nM. For the same compound, the inhibitory constant (Ki) in assay [2] and in [3] was < 100 nM each time.
In turn, `CCS(=O)(=O)Nc1cc(-c2cn(C)c3c(O)nccc23)cc2c1cnn2Cc1ccc(F)cc1` [Compound 31, N-(1-(4-fluorobenzyl)-6-(7-hydroxy-1-methyl-1H-pyrrolo[2,3-c]pyridin-3-yl)-1H-indazol-4-yl)ethanesulfonamide] showed an IC50 in assay [1] of 15 nM. In addition, the Ki in assay [2] and in assay [3] was < 100 nM each time.
Turning to `CCS(=O)(=O)Nc1cc(-c2cn(C)c3c(=O)[nH]ccc23)cc2c1ccn2C(C)(c1ccccn1)c1ccccn1` [Compound 70], in [1], the half-maximal inhibitory concentration (IC50) worked out at 0.9 nM. The “growth inhibition in comparison with clinical benchmark BET inhibitors” value in [1] (FIG. 10, vs BMS-98615, ABBV-075, AVR-771, AZD-5153, I-BET-762 and JQ1) is listed as “superior potency”. Moreover, the “efficacy in inhibiting the growth of 3D spheroids” value in assay [4] is “more efficacious than JQ1 and AZD-5153”. Further, the Kd worked out at 3500 nM in assay [5]; 7700 nM in assay [6]; 0.27 nM in [7]; 0.57 nM in assay [8]; 0.77 nM in assay [9]; 0.34 nM in assay [10]. The Kd in [11] was determined as 0.27 nM; in assay [12] it was 0.61 nM; in assay [13], 4900 nM; in assay [14] it was 3500 nM; in [15], 0.14 nM; in assay [16], 0.23 nM. Further, the Kd in [17] came to 1.4 nM; in assay [18], 360 nM; in assay [19], 6000 nM; in assay [20], 110 nM; in assay [21] it was 37 nM; in assay [22] it was 6100 nM. Besides, the Kd in assay [23] came to 9.1 nM; in assay [24], 44 nM; in [25] it was 4400 nM. Moreover, the “binding affinity for BET family” value in [26] is “subnanomolar potency”.
For `Cn1cc(-c2cc(C(C)(C)O)c3ccn(C(C)(c4ccccn4)c4ccccn4)c3c2)c2cc[nH]c(=O)c21` [Compound 72, 3-(1-(1,1-di(pyridin-2-yl)ethyl)-4-(2-hydroxypropan-2-yl)-1H-indol-6-yl)-1-methyl-1H-pyrrolo[2,3-c]pyridin-7(6H)-one], inhibition in assay [1] was half-maximal at 20 nM (IC50). Also, the inhibition constant (Ki) in assay [2] and in [3] was < 10 nM each time.
In turn, `Cn1cc(-c2cc(NS(C)(=O)=O)c3cnn(Cc4ccc(F)cc4)c3c2)c2ccnc(O)c21` [Compound 30, N-(1-(4-fluorobenzyl)-6-(7-hydroxy-1-methyl-1H-pyrrolo[2,3-c]pyridin-3-yl)-1H-indazol-4-yl)methanesulfonamide] gave a half-inhibitory concentration (IC50) in [1] of 40 nM. The Ki in [2] and in assay [3] was < 100 nM throughout.
In turn, `CC(=O)Nc1cc(-c2cn(C)c3c(=O)[nH]ccc23)cc2c1ccn2C(C)(c1ccccn1)c1ccccn1` [Compound 71, N-(1-(1,1-di(pyridin-2-yl)ethyl)-6-(1-methyl-7-oxo-6,7-dihydro-1H-pyrrolo[2,3-c]pyridin-3-yl)-1H-indol-4-yl)acetamide] registered an IC50 in assay [1] of 10 nM. For the same compound, the Ki in assay [2] and in assay [3] was < 10 nM throughout.

Source of the values: US11840533B2, “Pyridinone-based epigenetic modifiers and uses thereof” (THE BOARD OF TRUSTEES OF THE UNIVERSITY OF ILLINOIS, priority 2017, dated 2023).
